Test results reported in US20230382926A1, “COMPOUNDS AND USES THEREOF” (The University of The West Indies, priority 2022, published 2023).

Key:
K. pneumoniae = assay: Rescue concentration of substituted phenyl azaindole derivatives; assay type: cell-based; conditions: for Rescue concentration, K. pneumoniae Ciprofloxacin (1 μg/mL): Ciprofloxacin fixed at 1 μg/mL; for Rescue concentration, K. pneumoniae Imipenem (1 μg/mL): Imipenem fixed at 1 μg/mL
Method: (§1) The antibiotic adjuvant activity of the SPazaBIMs were evaluated in combination with representative antibiotics (representing 13 antibiotic classes) against the 19 pathogens strains listed in Table 3. To assess the adjuvant properties of the SP-azaBIM molecules, a modified checkerboard minimum inhibitory concentration assay was used. A fixed concentration of the respective antibiotic (susceptible breakpoint concentration) was mixed with a twofold dilution series of the test SP-azaBIM (FIG. 1). This was to determine the concentration of SP-azaBIM needed potentiate the antibiotic at a clinically susceptible breakpoint concentration. Antibiotic susceptible breakpoint concentrations for the respective bacteria were determined using Clinical Laboratory Standards Institute (CLSI) criteria M100 ED31.
(§2) In this study, only those antibiotics to which the bacterial was classed as resistant were included in the adjuvant assays. In this assay we recorded the rescue concentration of the SP-BIM for a respective antibiotic. The rescue concentration was defined as the concentration of the adjuvant that reduces the minimum inhibitory concentration (MIC) of an antibiotic to the susceptibility breakpoint.
(§3) Immediately prior to testing, the respective antibiotic and SP-azaBIM was dissolved in sterile deionised water at 20× the required test concentration. Each microtiter well was then inoculated with 180 μl of bacterial inoculum of 10^6 CFU/ml in ca-MHB, and 10 μl each if the antibiotic and SP-azaBIM was added to the plates. These plates were then incubated at 35° C. for 24 h under aerobic conditions. A similar method was followed for the fastidious pathogens except that they were cultured in ca-MHB with 5% sheep blood and 5% CO2.
(§4) Bacterial growth was visually inspected after the incubation period and the rescue concentration of the test SP-azaBIM was determined as the lowest concentration of the compound needed to reduce bacterial growth by 99.99% at the susceptible breakpoint concentration of the antibiotic. For example, CLSI states that Pseudomonas aeruginosa is susceptible to the Imipenem if the MIC is ≤2 μg mL^−1. If the bacteria can tolerate this concentration in vitro, then the bacteria has an intermediate or absolute resistance toward that antibiotic. The goal was to determine the concentration of SP-azaBIM needed to cause P. aeruginosa death at 2 μg mL^−1 of Imipenem therefore restoring susceptibility of the bacteria to toward the antibiotic.
(§5) Phenyl azaindole compounds are also tested for their adjuvant activities and the method is shown in Example 39.

P. aeruginosa = assay: as above; assay type: cell-based; conditions: Imipenem fixed at 1 μg/mL
Method: as §1, §2, §3
Bacterial growth was visually inspected after the incubation period and the rescue concentration of the test SP-azaBIM was determined as the lowest concentration of the compound needed to reduce bacterial growth by 99.99% at the susceptible breakpoint concentration of the antibiotic. […] If the bacteria can tolerate this concentration in vitro, then the bacteria has an intermediate or absolute resistance toward that antibiotic. […]
as §5

MRSA = assay: as above; assay type: cell-based, Staphylococcus aureus; conditions: Amoxicillin fixed at 2 μg/mL
Method: as §1, §2, §3, §4, §5

[1] = test system: Methicillin resistant Staphylococcus aureus; assay: Broth microdilution minimum inhibitory concentration; assay type: cell-based; conditions: compound alone
Method: (§6) Antibacterial activity of the synthesized compounds was determined following guidelines established by the Clinical and Laboratory Standards Institute M07-A10 (CLSI 2015), following the broth microdilution method. Briefly, the test articles were dissolved in 100% DMSO, diluted by 2-fold serial titrations in the same vehicle (100% DMSO), for a total of 11 concentrations. A 4 μL aliquot of each dilution was then added to 196 μL of broth medium seeded with the bacterial suspension in wells of a 96 well plate (bacterial count: 2×10^5 to 8×10^5 colony forming units/mL final). The highest test substance concentration was 1028 μg/mL, and the final vehicle concentration was 2 percent. Following incubation, the test plate was visually examined, and each well was scored for growth or complete inhibition of growth. The minimum inhibitory concentration was determined as the lowest concentration were no growth of the bacterial was observed. Each test article was assayed in duplicate.

[2] = test system: Multidrug resistant Pseudomonas aeruginosa; assay: as above; assay type: cell-based; conditions: compound alone
Method: as §6

[3] = test system: Vancomycin resistant Enterococcus faecalis; assay: as above; assay type: cell-based; conditions: compound alone
Method: as §6

[4] = test system: Carbapenem resistant Klebsiella pneumoniae; assay: as above; assay type: cell-based; conditions: compound alone
Method: as §6

[5] = test system: Carbapenem resistant Acinetobacter baumannii; assay: as above; assay type: cell-based; conditions: compound alone
Method: as §6

Row | SMILES | Rescue concentration, K. pneumoniae Ciprofloxacin (1 μg/mL) (K. pneumoniae) | Rescue concentration, K. pneumoniae Imipenem (1 μg/mL) (K. pneumoniae) | Rescue concentration, P. aeruginosa Imipenem (1 μg/mL) (P. aeruginosa) | Rescue concentration, MRSA Amoxicillin (2 μg/mL) (MRSA) | MIC [1] | MIC [2] | MIC [3] | MIC [4] | MIC [5]
1 | COc1ccc(C(O)c2c[nH]c3cnc(Br)cc23)cc1OC (stereo not drawn) [3,4 Di methoxy 5Br-6aza-OH, (5-bromo-1H-pyrrolo[2,3-c]pyridin-3-yl)(3,4-dimethoxyphenyl)methanol] | <256 µg/mL | <256 µg/mL | <256 µg/mL | 2 µg/mL | < 1020 mg/L | < 1020 mg/L | < 1020 mg/L | < 1020 mg/L | < 1020 mg/L
2 | O=[N+]([O-])c1cccc(C(O)c2c[nH]c3c(Cl)nc(Br)cc23)c1 (stereo not drawn) [3NO2-5Br-7Cl-6aza-OH, (5-bromo-7-chloro-1H-pyrrolo[2,3-c]pyridin-3-yl)(3-nitrophenyl)methanol] | <256 µg/mL | <256 µg/mL | <256 µg/mL | 16 µg/mL | < 1020 mg/L | < 1020 mg/L | < 1020 mg/L | < 1020 mg/L | < 1020 mg/L
3 | O=[N+]([O-])c1cccc(C(O)c2c[nH]c3cnc(Cl)cc23)c1 (stereo not drawn) [3NO2-5Cl-6aza-OH, (5-chloro-1H-pyrrolo[2,3-c]pyridin-3-yl)(3-nitrophenyl)methanol] | <256 µg/mL | <256 µg/mL | <256 µg/mL | <256 µg/mL | < 1020 mg/L | < 1020 mg/L | < 1020 mg/L | < 1020 mg/L | < 1020 mg/L
4 | O=[N+]([O-])c1cccc(C(O)c2c[nH]c3ncc(Cl)cc23)c1 (stereo not drawn) [3NO2-5Cl-7aza-OH, (5-chloro-1H-pyrrolo[2,3-b]pyridin-3-yl)(3-nitrophenyl)methanol] | <256 µg/mL | <256 µg/mL | <256 µg/mL | <256 µg/mL | < 1020 mg/L | < 1020 mg/L | < 1020 mg/L | < 1020 mg/L | < 1020 mg/L
5 | O=[N+]([O-])c1cccc(C(O)c2c[nH]c3ncc(F)cc23)c1 (stereo not drawn) [3NO2-5Fl-7aza-OH, (5-fluoro-1H-pyrrolo[2,3-b]pyridin-3-yl)(3-nitrophenyl)methanol] | <256 µg/mL | <256 µg/mL | <256 µg/mL | 128 µg/mL | < 1020 mg/L | < 1020 mg/L | < 1020 mg/L | < 1020 mg/L | < 1020 mg/L
6 | O=[N+]([O-])c1cccc(C(O)c2c[nH]c3c(Cl)nccc23)c1 (stereo not drawn) [3NO2-7Cl-6aza, (7-chloro-1H-pyrrolo[2,3-c]pyridin-3-yl)(3-nitrophenyl)methanol] | <256 µg/mL | <256 µg/mL | <256 µg/mL | 32 µg/mL | < 1020 mg/L | < 1020 mg/L | < 1020 mg/L | < 1020 mg/L | < 1020 mg/L
7 | O=[N+]([O-])c1cccc(C(c2c[nH]c3cnccc23)c2c[nH]c3cnccc23)c1 [3NO2-Bis-6aza, 3,3′-((3-nitrophenyl)methylene)bis(1H-pyrrolo[2,3-c]pyridine)] | <256 µg/mL | <256 µg/mL | <256 µg/mL | <256 µg/mL | < 1020 mg/L | < 1020 mg/L | < 1020 mg/L | < 1020 mg/L | < 1020 mg/L
8 | OC(c1ccc(Br)cc1)c1c[nH]c2cnc(Br)cc12 (stereo not drawn) [4Br-5Br-6aza-OH, (5-bromo-1H-pyrrolo[2,3-c]pyridin-3-yl)(4-bromophenyl)methanol] | <256 µg/mL | <256 µg/mL | <256 µg/mL | 4 µg/mL | < 1020 mg/L | < 1020 mg/L | < 1020 mg/L | < 1020 mg/L | < 1020 mg/L
9 | OC(c1ccc(Br)cc1)c1c[nH]c2cnc(Cl)cc12 (stereo not drawn) [4Br-5Cl-6aza-OH, (4-bromophenyl)(5-chloro-1H-pyrrolo[2,3-c]pyridin-3-yl)methanol] | <256 µg/mL | <256 µg/mL | <256 µg/mL | 0.5 µg/mL | < 1020 mg/L | < 1020 mg/L | < 1020 mg/L | < 1020 mg/L | < 1020 mg/L
10 | OC(c1ccc(Br)cc1)c1c[nH]c2ncc(Cl)cc12 (stereo not drawn) [4Br-5Cl-7aza-OH, (4-bromophenyl)(5-chloro-1H-pyrrolo[2,3-b]pyridin-3-yl)methanol] | 32 µg/mL | 32 µg/mL | 256 µg/mL | 8 µg/mL | < 1020 mg/L | < 1020 mg/L | < 1020 mg/L | < 1020 mg/L | < 1020 mg/L
11 | OC(c1ccc(Br)cc1)c1c[nH]c2c(Cl)nccc12 (stereo not drawn) [4Br-7Cl-6aza-OH, (4-bromophenyl)(7-chloro-1H-pyrrolo[2,3-c]pyridin-3-yl)methanol] | <256 µg/mL | <256 µg/mL | <256 µg/mL | 2 µg/mL | < 1020 mg/L | < 1020 mg/L | < 1020 mg/L | < 1020 mg/L | < 1020 mg/L
12 | O=[N+]([O-])c1ccc(C(O)c2c[nH]c3cnc(Br)cc23)cc1 (stereo not drawn) [4NO2-5Br-6aza-OH, (5-bromo-1H-pyrrolo[2,3-c]pyridin-3-yl)(4-nitrophenyl)methanol] | <256 µg/mL | <256 µg/mL | <256 µg/mL | 32 µg/mL | < 1020 mg/L | < 1020 mg/L | < 1020 mg/L | < 1020 mg/L | < 1020 mg/L
13 | O=[N+]([O-])c1ccc(C(O)c2c[nH]c3c(Cl)nc(Br)cc23)cc1 (stereo not drawn) [4NO2-5Br-7Cl-6aza-OH, (5-bromo-7-chloro-1H-pyrrolo[2,3-c]pyridin-3-yl)(4-nitrophenyl)methanol] | <256 µg/mL | <256 µg/mL | <256 µg/mL | 16 µg/mL | < 1020 mg/L | < 1020 mg/L | < 1020 mg/L | < 1020 mg/L | < 1020 mg/L
14 | O=[N+]([O-])c1ccc(C(O)c2c[nH]c3cnc(Cl)cc23)cc1 (stereo not drawn) [4NO2-5Cl-6aza-OH, (5-chloro-1H-pyrrolo[2,3-c]pyridin-3-yl)(4-nitrophenyl)methanol] | <256 µg/mL | <256 µg/mL | 128 µg/mL | <256 µg/mL | < 1020 mg/L | < 1020 mg/L | < 1020 mg/L | < 1020 mg/L | < 1020 mg/L
